Patent publication US20100168099A1, “1H-QUINOLIN-4-ONE COMPOUNDS, WITH AFFINITY FOR THE GABA RECEPTOR, PROCESSES, USES AND COMPOSITIONS” (FERRER INTERNACIONAL, S.A., priority 2006, published 2010)

Experiments:
α1-GABAA receptor = assay: Ligand-binding assay, radiolabeled flumazenil competition, cerebellum membranes; set-up: species or system rat; details: for Affinity for the α1-subunit of the GABAA receptor, % inhibition: rat cerebellum membranes, radiolabeled flumazenil 1 nM
Method: (§1) a) Ligand-binding Assays. Determination of the Affinity of Test Compounds for α1- and α2-GABAA, Receptor
(§2) Male Sprague-Dawley rats weighing 200-250 g at the time of experiment were used. After decapitation of the animal, the cerebellum (tissue that mostly contains α1-GABAA receptor) and spinal cord (tissue that mostly contains α2-GABAA receptor) were removed. The membranes were prepared according to the method by J. Lameh et al. (Prog. Neuro-Psychopharmacol. Biol. Psychiatry, 24, 979-991, 2000) and H. Noguchi et al. (Eur J Pharm, 434, 21-28, 2002) with slight modifications. Once the tissues weighed, they were suspended in 50 mM Tris.HCl (pH 7.4), 1:40 (v/v), or sucrose 0.32 M in the case of spinal cord, homogenized and then centrifuged at 20,000 g for 10 min at 7° C. The resulting pellet was resuspended under the same conditions and centrifuged again. The pellet was finally resuspended on a minimum volume and kept at −80° C. overnight. On the next day, the process was repeated until the final pellet was resuspended at a ratio of 1:10 (v/v) in the case of cerebellum and at a ratio of 1:5 (v/v) in the case of spinal cord.
(§3) Affinity was determined by competitive tests using radiolabeled flumazenil as ligand. The tests were performed according to the methods described by S. Arbilla et al. (Eur. J. Pharmacol., 130, 257-263, 1986); and Y. Wu et al. (Eur. J. Pharmacol., 278, 125-132, 1995) using 96-well microtiter plates. The membranes containing the study receptors, flumazenil (radiolabeling at a final concentration of 1 nM) and ascending concentrations of test compounds (in a total volume of 230 μL in 50 mM [pH 7.4] Tris.HCl buffer) were incubated. Simultaneously, the membranes were only incubated with the radiolabeled flumazenil (total binding, 100%) and in the presence of an elevated concentration of unradiolabeled flumazenil (non-specific binding, % estimation of radiolabeled ligand). The reactions started on adding the radiolabeled ligand followed by incubation for 60 minutes at 4° C. At the end of the incubation period, 200 μL of reaction were transferred to a multiscreen plate (Millipore) and filtered using a vacuum manifold and then washed three times with cold test buffer. The multiscreen plates were equipped with a GF/B filter that retained the membranes containing the receptors and the radiolabeled ligand which had been bound to the receptors. After washing, the plates were left till dry. Once dried, scintillation liquid was added and left under stirring overnight. The next day the plates were counted using a Perkin-Elmer Microbeta scintillation counter.
(§4) For analysis of the results the percentage of specific binding for every concentration of test compound was calculated as follows:
(§5) % specific binding=(X−N/T−N)×100
(§6) where, X: amount of bound ligand for every concentration of compound. T: total binding, maximum amount bound to the radiolabeled ligand. N: non-specific binding, amount of radiolabeled ligand bound in a non-specific way irrespective of the receptor used.
(§7) Every concentrations of compound were tested in triplicate and their mean values were used to determine the experimental values of % specific binding versus the concentration of compound. Affinity data are expressed as % inhibition at 10^−5M and 10^−7M concentrations.

α2-GABAA receptor = assay: Ligand-binding assay, radiolabeled flumazenil competition, spinal cord membranes; set-up: species or system rat; details: for Affinity for the α2-subunit of the GABAA receptor, % inhibition: rat spinal cord membranes, radiolabeled flumazenil 1 nM
Method: as §1, §2, §3, §4, §5, §6, §7

[1] = tested on: spontaneous motor activity of male CD1 mice; assay: In vivo predictive sedation-hypnosis test (traveled distance); details: Mus musculus, ip, 0.5 h, 98 μmol/kg, single intraperitoneal dose, 30 minutes after dosing (first 5 min discarded), versus control
Method: b) In Vivo Determination of Predictive Sedative-Hypnotic Action
The in vivo effects of these compounds were assessed by a predictive sedation-hypnosis test in mice (D. J. Sanger et al., Eur. J. Pharmacol., 313, 35-42, 1996; and G. Griebel et al., Psychopharmacology, 146, 205-213, 1999).
Groups of 5-8 male CD1 mice, weighing 22-26 g at the time of test, were used. The test compounds were administered in single equimolecular intraperitoneal doses, suspended in 0.25% agar with one drop of Tween in a volume of 10 mL/kg. Control animals received the vehicle alone. Using a Smart System (Panlab, S. L., Spain) the traveled distance in cm was recorded for each mouse at 5 min intervals during a period of 30 minutes after dosing. The inhibition percentage traveled distance of treated animals versus control animals (the first 5 min were discarded) was calculated.

[2] = compared with zolpidem where stated

| Compound | Affinity for the α1-subunit of the GABAA receptor, % inhibition (α1-GABAA receptor; 10^−5M) | Affinity for the α1-subunit of the GABAA receptor, % inhibition (α1-GABAA receptor; 10^−7M) | Affinity for the α2-subunit of the GABAA receptor, % inhibition (α2-GABAA receptor; 10^−5M) | Affinity for the α2-subunit of the GABAA receptor, % inhibition (α2-GABAA receptor; 10^−7M) | inhibition in vivo at 98 µmol/kg [1] | affinity for α1-subunit of GABAA receptor (in words) (α1-GABAA receptor; [2]) | affinity for the α2-subunit of GABAA receptor (in words) (α2-GABAA receptor; [2]) |
| --- | --- | --- | --- | --- | --- | --- | --- |
| COc1ccc(NC(=O)Cn2cc(-c3ccc(OC)cc3)c(=O)c3ccc(C)cc32)cc1 [Example 80, N-(4-Methoxy-phenyl)-2-[3-(4-methoxy-phenyl)-7-methyl-4-oxo-4H-quinolin-1-yl]acetamide] | 78.5% | 28.5% | 65.1% | 15.7% | 71.9% |  |  |
| Cc1ccc2c(=O)c(-c3ccccc3)cn(CC(=O)c3ccccn3)c2c1 [Example 28, 7-Methyl-1-(2-oxo-2-pyridin-2-yl-ethyl)-3-phenyl-1H-quinolin-4-one] | 97.9% | 22.5% | 88.0% | 0.0% | 84.4% |  |  |
| CCCN(CCC)C(=O)Cn1cc(-c2ccccc2)c(=O)c2ccc(C)cc21 [Example 14, 2-(7-Methyl-4-oxo-3-phenyl-4H-quinolin-1-yl)-N,N-dipropyl-acetamide] | 98.4% | 36.7% | 77.3% | 40.6% | 96.2% | higher affinity |  |
| Cc1ccc(-c2nc3ccc(C)cn3c2CC(=O)N(C)C)cc1 [zolpidem, reference compound] | 99.8% | 51.9% | 74.1% | 19.9% | 91.7% |  |  |
| Cc1ccc2c(=O)c(-c3ccccc3)cn(CC(=O)c3cccs3)c2c1 [Example 27, 7-Methyl-1-(2-oxo-2-thiophen-2-yl-ethyl)-3-phenyl-1H-quinolin-4-one] | 97.7% | 14.0% | 89.9% | 8.4% | 70% |  | higher affinity than prior art compound zolpidem |
| Cc1ccc2c(=O)c(-c3ccccc3)cn(CC(=O)N3C(C)C=CC3C)c2c1 (centres unmarked) [Example 42, 1-[2-(2,5-Dimethyl-2,5-dihydro-pyrrol-1-yl)-2-oxo-ethyl]-7-methyl-3-phenyl-1H-quinolin-4-one] | 97.0% | 25.6% | 74.1% | 0.0% | 92.2% |  |  |
